Measurements as given in PubChem BioAssay AID290 (DTP/NCI, 2004).
Where “and” joins values, the source holds several entries; their conditions need not be identical. Equal entries are not always repeated. Results filed as inconclusive are left out.

Tested on: mice, P1798 lymphosarcoma sc, survival or tumor weight T/C
Experiment: NCI In Vivo Anticancer Drug Screen. Data for tumor model P1798 Lymphosarcoma (subcutaneous) in unknown mice
Settings: endpoint: mean tumor weight, higher = larger tumour
Method: The antitumor activity of compounds was measured in mice bearing transplantable tumors. Survival or tumor size were measured and the results are expressed as the measurement made in the treated group (T) divided by the measurement made in the vehicle treated control group (C). The tumor model used in this assay is P1798 Lymphosarcoma (subcutaneous) in unknown mice

[1] = dose: 50.0 mg/kg/injection, schedule: Q01DX010 (ip), vehicle: carboxymethylcellulose (CMC)
[2] = dose: 6.3 mg/kg/injection, schedule: Q01DX010 (ip), vehicle: carboxymethylcellulose (CMC)
[3] = dose: 25.0 mg/kg/injection, schedule: Q01DX010 (ip), vehicle: carboxymethylcellulose (CMC)

CS(=O)(=O)OCCCCOS(C)(=O)=O
T/C (dose: 2.0 mg/kg/injection, schedule: Q01DX010 (ip), vehicle: methylcellulose (MC)): 74 % of control and 85 % of control
T/C (dose: 4.0 mg/kg/injection, schedule: Q01DX010 (ip), vehicle: methylcellulose (MC)): 95 % of control
T/C (dose: 8.0 mg/kg/injection, schedule: Q01DX010 (ip), vehicle: methylcellulose (MC)): 117 % of control and 92 % of control
T/C (dose: 16.0 mg/kg/injection, schedule: Q01DX010 (ip), vehicle: methylcellulose (MC)): 50 % of control

CCC(=O)O[C@H]1CC[C@H]2[C@@H]3CCC4=CC(=O)CC[C@]4(C)[C@H]3CC[C@]12C
T/C (dose: 150.0 mg/kg/injection, schedule: Q01DX010 (sc), vehicle: steriod suspending solution): 108 % of control
T/C (dose: 300.0 mg/kg/injection, schedule: Q01DX010 (sc), vehicle: steriod suspending solution): 116 % of control
T/C (dose: 600.0 mg/kg/injection, schedule: Q01DX010 (sc), vehicle: steriod suspending solution): 104 % of control

Nc1nc(F)nc2c1ncn2C1OC(CO)C(O)C1O (stereo not drawn)
T/C (dose: 0.75 mg/kg/injection, schedule: Q01DX011 (ip), vehicle: saline): 73 % of control
T/C (dose: 1.5 mg/kg/injection, schedule: Q01DX011 (ip), vehicle: saline): 30 % of control

CN(N=O)C(N)=O
T/C (dose: 12.5 mg/kg/injection, schedule: Q01DX010 (ip), vehicle: saline): 10 % of control
T/C (dose: 25.0 mg/kg/injection, schedule: Q01DX010 (ip), vehicle: saline): 13 % of control

CCCCn1cnc2c(=S)nc[nH]c21
T/C [1]: 78 % of control
T/C (dose: 100.0 mg/kg/injection, schedule: Q01DX010 (ip), vehicle: carboxymethylcellulose (CMC)): 43 % of control

CN(C)c1ccc(Nc2c3ccccc3nc3ccccc23)cc1
T/C (dose: 3.15 mg/kg/injection, schedule: Q01DX010 (ip), vehicle: carboxymethylcellulose (CMC)): 84 % of control
T/C [2]: 86 % of control
T/C [3]: 36 % of control
T/C [1]: 10 % of control

NC(=O)c1ccc(N)nc1
T/C (dose: 0.63 mg/kg/injection, schedule: Q01DX010 (ip), vehicle: saline): 71 % of control
T/C (dose: 1.25 mg/kg/injection, schedule: Q01DX010 (ip), vehicle: saline): 82 % of control
T/C (dose: 2.5 mg/kg/injection, schedule: Q01DX010 (ip), vehicle: saline): 52 % of control
T/C (dose: 5.0 mg/kg/injection, schedule: Q01DX010 (ip), vehicle: saline): 21 % of control

Cn1c(N)nc2nc[nH]c2c1=S
T/C (dose: 3.1 mg/kg/injection, schedule: Q01DX010 (ip), vehicle: carboxymethylcellulose (CMC)): 105 % of control
T/C [2]: 59 % of control
T/C (dose: 10.0 mg/kg/injection, schedule: Q01DX010 (ip), vehicle: saline): 102 % of control
T/C (dose: 12.5 mg/kg/injection, schedule: Q01DX010 (ip), vehicle: carboxymethylcellulose (CMC)): 91 % of control
T/C (dose: 20.0 mg/kg/injection, schedule: Q01DX010 (ip), vehicle: saline): 99 % of control
T/C [3]: 101 % of control
T/C (dose: 40.0 mg/kg/injection, schedule: Q01DX010 (ip), vehicle: saline): 122 % of control
T/C (dose: 80.0 mg/kg/injection, schedule: Q01DX010 (ip), vehicle: saline): 114 % of control

CCOC(N)=O
T/C (dose: 250.0 mg/kg/injection, schedule: Q01DX010 (ip), vehicle: saline): 70 % of control and 76 % of control

O=C(Nc1ccc(C2=NCCCN2)cc1)c1ccc(NC(=O)c2ccc(C3=NCCCN3)cc2)cc1
T/C (dose: 2.0 mg/kg/injection, schedule: Q01DX010 (ip), vehicle: carboxymethylcellulose (CMC)): 73 % of control
T/C (dose: 4.0 mg/kg/injection, schedule: Q01DX010 (ip), vehicle: carboxymethylcellulose (CMC)): 50 % of control
T/C (dose: 8.0 mg/kg/injection, schedule: Q01DX010 (ip), vehicle: carboxymethylcellulose (CMC)): 15 % of control

Nc1nc(=S)c2[nH]cnc2[nH]1
T/C (dose: 0.12 mg/kg/injection, schedule: Q01DX010 (ip), vehicle: carboxymethylcellulose (CMC)): 77 % of control
T/C (dose: 0.25 mg/kg/injection, schedule: Q01DX010 (ip), vehicle: carboxymethylcellulose (CMC)): 64 % of control
T/C (dose: 0.5 mg/kg/injection, schedule: Q01DX010 (ip), vehicle: carboxymethylcellulose (CMC)): 81 % of control

CCNc1nncs1
T/C (dose: 18.0 mg/kg/injection, schedule: Q01DX010 (ip), vehicle: carboxymethylcellulose (CMC)): 93 % of control
T/C (dose: 37.0 mg/kg/injection, schedule: Q01DX010 (ip), vehicle: carboxymethylcellulose (CMC)): 67 % of control
